Measurements published in US5200397A, “Use of peptide analogs of thrombospondin for the inhibition of angiogenic activity” (W. R. Grace & Co.-Conn., priority 1991, dated 1993).
Residues, ends and D or L forms follow the SMILES beside them. No end group written: not given here.

How the values were obtained:
platelets = experiment: Direct platelet adhesion assay; type: cell-based; settings: for Adherence as % Control: wells treated with 50 μl of 40 μg/ml solution, platelets
Experimental: The number of adherent platelets was essentially determined as previously described (Tuszynski et al., Anal. Bio. supra). Briefly, 100 μl of 5×10^8 platelets/ml washed as previously described (Tuszynski, et al., Blood 72, 109-225, 1988) were added to microtiter plates, the wells of which were treated with 50 μl of a 40 μg/m] peptide or protein solution (Hepes buffered saline, pH 7.4). Solutions were dried at room temperature after incubation in a fume hood for two hours. Wells were blocked for one hour with 1% BSA. Platelets (100 μl) were incubated in the wells for 30 minutes and non-adherent platelets were removed by aspiration. Wells were washed 3X with 200 μl of Hepes buffered saline, pH 7.4. The number of adherent platelets was determined by measuring the platelet-derived protein using the BCA protein assay.

[1] = test system: Mouse B16 F10 melanoma cells; experiment: Direct adhesion assay (melanoma cells to adsorbed ligand); type: cell-based; settings: for Adhesion as % Thrombospondin: absorbed compound 2 μg, B16 F10 melanoma cells
Experimental: It is believed that thrombospondin acts in metastasis through its adhesive properties. […] In this assay, wells of a 96-well microtiter dish (Costar, 10 Cambridge, Massachusetts) were incubated for two to three hours with 50 μl of a 40 μg/ml solution of various ligands in 20 mM NaCl, pH 7.3. Thrombospondin (purified by the method of Tuszynski et al., J. Biol. Chem. (1985) 260:12240-5), fibronectin (Sigma Chemical Co., Missouri) served as the positive control. Bovine serum albumin (BSA) (Sigma Chemical Co.) served as the negative control. […] Following peptide adhesion to the microtiter dish, the wells were aspirated, treated with 200 μl phosphate buffered saline (PBS) containing 1% BSA for 1 hour and then washed three more times with 200 μl PBS.
Mouse B16 F10 melanoma cells were grown and harvested during log phase of growth using standard procedures. The harvested cells were washed two times in serum-free Dulbecco's minimum essential medium (DMEM) (Flow Laboratories) and suspended in DMEM at a final concentration of 4×10^5 cells/ml. Of the cell suspension 100 μl was added to each well of the microtiter dish containing the various ligands and the dish incubated at 37° C. in a CO2 incubator for 1 hour. Nonadherent cells were removed by aspiration and the wells washed three times with 200 μl of PBS. The total cell-associated protein was determined by dissolving the attached cells directly in the microtiter wells with 200 μl of the Pierce BCA working solution (Pierce Chem. Co. Booklet No. 23225 (1987)). The plate was covered with an adhesive mylar sheet (Flow Labs) and incubated at 60° C. for 30 minutes. Plates were allowed to cool to room temperature, cover sheets were removed, and the absorbance of each well was determined at 562 nm with a microtiter plate reader (Biotek, Burlington, Vt.)

[2] = test system: chicken chorioallantoic membrane (CAM); experiment: CAM assay (antiangiogenesis, Avascular Index); type: in vivo; settings: any dosage
Experimental: Assays for antiangiogenic properties on the chicken chorioallantoic membrane (CAM) were performed using the "egg culture" technique (Auerbach, Dev. Biol. (1974) 41:391 and Crum, Science (1985) 230:1375). The fertilized White Leghorn egg (Truslow Farms, Chestertown, Md.) used in this method was removed from the shell on day 3 (after fertilization) and placed in a culture dish. The "cultured egg" was maintained through day 6 at 37° C. in an atmosphere of 2% CO2 and a relative humidity of 70%. After day 6 incubation was carried out without supplemental CO2.
Test materials were implanted on the CAM using low gelling temperature agarose pellets (Castellot, J. Cell Physiol. (1986) 127:323). This assay was performed twice. In the first assay, the test materials included pellets containing 90, 9, and 0.9 μg of peptide p1 (SEQ ID No. 1) diluted in water. […]
Antiangiogenesis was examined in an assay for inhibition of embryonic angiogenesis as described by Fenselau in "Growth and Maturation Factors" (1984) 2:175. After 1 or 2 days the samples were evaluated for their antiangiogenic effects on the CAM. […]
Inhibition of embryonic angiogenesis was also quantitated by measuring the size of the affected zone surrounding the pellet as well as the portion of the pellet that borders the affected region. […]

collagenase = experiment: Collagenase inhibition assay (Johnson-Wint radiometric); type: biochemical; settings: 2 μg dose
Experimental: Collagenase inhibitory activity was determined as described by Johnson-Wint (Anal. Biochem. (1980) 104:175). Peptides p1 (SEQ ID No. 1) and p27 (SEQ ID NO. 19) were tested in the Johnson-Witt radiometric enzyme assay for collagenase activity at doses of 50 ng, 100 ng, 250 ng, 500 ng, 1 μg and 2μg. Peptide p27 was inhibitory (-21%) at the 2μg dose.

intact thrombospondin = experiment: Competitive assay, thrombospondin specific adhesion to melanoma cells; type: cell-based; settings: for % of buffer control: melanoma cell adhesion to absorbed thrombospondin
Experimental: The direct adhesion assay of Example 5 was modified to measure the ability of the peptide compounds of the invention to compete with intact thrombospondin for adhesion to melanoma cells.
In this assay, intact thrombospondin is absorbed onto microtiter dishes as described in Example 5. The assay is similar to Example 5 except that before the melanoma cells are added to the microtiter dishes they are preincubated for 15 minutes with 100 μg/ml of various ligands.

[3] = test system: B16 F10 mouse melanoma cells; experiment: Antimetastatic activity in vivo (lung tumors); design: species or system C57 black mice; settings: for % buffer control (number of lung tumors): intravenous with cells, 16 days
Text: After 16 days, the mice were sacrificed and the number of lung tumors counted.

fibronectin (FN) = experiment: Competitive platelet adhesion assay, absorbed fibronectin; type: cell-based; settings: 250 μg/ml; absorbed protein FN; platelets
Experimental: The direct adhesion assay of Example 7 was modified to measure the ability of the peptide compounds of the invention to compete with intact thrombospindin or fibronectin for adhesion of platelets.
In this assay, thrombospondin (TSP) or fibronectin (FN) was absorbed onto microtiter dish as described in Example 7. The assay was similar to Example 7 except that before platelets were added to the microtiter dishes they were preincubated with 250 μg/ml of various ligands.

[4] = test system: Platelet-rich-plasma (PRP); experiment: Platelet aggregation assay (ADP, platelet-rich plasma); type: cell-based; settings: 1 μM ADP
Experimental: Platelet aggregation was monitored on a single-channel aggregometer equipped to measure luminescence (Chromo-Log, Havertown, Pa.). Platelet-rich-plasma (PRP) was obtained from whole blood anti-coagulated with 0.38% Sodium Citrate by centrifugation at 150 X g for 20 minutes. Peptides were added to 0.5 ml of PRP and aggregation initiated with 1 μM ADP. Buffer blanks contained diluent (water) but no peptide.

What does the source list for Thrombospondin [reference compound]?
Adherence as % Control (platelets): 100%; Adhesion as % Thrombospondin [1]: 100%

How did the “toxicity to embryo (abnormal development, embryo death)” value [2] turn out when `CC(C)[C@H](NC(=O)[C@H](CO)NC(=O)[C@H](CS)NC(=O)[C@@H]1CCCN1C(=O)[C@H](CO)NC(=O)[C@@H](N)Cc1c[nH]c2ccccc12)C(=O)N[C@H](C(=O)N[C@@H](CS)C(=O)NCC(=O)O)[C@@H](C)O` [p1] (H-WSPCSVTCG-OH) was run?
Its value is “not toxic”.

How did the “collagenase activity, inhibition” value (collagenase) turn out when “p27: Peptide p27 (SEQ ID NO. 19) tested in the collagenase assay; sequence not printed (WTSCSTSCG)” was run?
The value was -21%.

Which “Adherence as % Control” value (platelets) does the source give for “Bovine serum albumin [BSA, reference compound]” here?
The value was 0.7%.

What about the “Adhesion as % Thrombospondin” value [1] of the same molecule?
The value was 13%.

Which results are given for “WSPCSVTCG-NH2 (cysteine pairing not given here) [p6]”?
competition with thrombospondin for adhesion of melanoma cells (in words) (intact thrombospondin): compete to a lesser degree; % of buffer control (intact thrombospondin; 100 μg/ml): 89%; % of buffer control (intact thrombospondin; 200 μg/ml): 74%; % of buffer control (intact thrombospondin; 300 μg/ml): 74%; % buffer control (number of lung tumors) ([3]; 30 μg/mouse): 91%; % buffer control (number of lung tumors) ([3]; 100 μg/mouse): 102%; % buffer control (number of lung tumors) ([3]; 300 μg/mouse): 50%; number of lung tumors versus controls (in words) ([3]; mouse, in vivo): statistically fewer tumors than controls; size of lung tumors (in words) ([3]; mouse, in vivo): smaller in size; adherence to platelets (in words) (platelets): adhere to platelets; Adherence as % Control (platelets): 38%; Adhesion as % Thrombospondin [1]: 70%; adhesive properties (in words) ([1]; melanoma cell adhesion, Table 1): display adhesive properties; % Buffer Control (fibronectin (FN)): 96%; inhibition of platelet aggregation (in words, FIG. 1) [4]: inhibit platelet aggregation

With fibronectin as the molecule, how does the “Adherence as % Control” value (platelets) read?
The value was 83%.
